Source: patent US20090170938A1 (priority 2005, published 2009)

Test system: Phytophthora infestans
Format: in vivo, Phytophthora infestans on tomato
Details: active compound application rate 5 ppm; protective spray, tomato; evaluation 3 days after inoculation

SMILES: CON=C(C(=O)OC)c1ccccc1CO/N=C(\C)c1cccc(C(F)(F)F)c1 [Trifloxystrobin, 2-[α-{[(α-methyl-3-trifluoromethyl-benzyl)imino]-oxy}-o-tolyl]-glyoxylic acid methyl ester O-methyloxime]
- % efficacy: 23%
